# Assays:
# giant foxtail (SETFA) [1] = assay: Test 5 field trial, postemergence; type: in vivo, Setaria faberi; conditions: atrazine 1120, glufosinate 470 or glyphosate 1120 g a.i./ha alone
# Text: (§1) Corn seeds (hybrid ‘Pioneer 38H69’) were planted in mid spring season, 5.1 cm deep in a silty clay loam soil having 3% organic matter and a pH of 6.5. Plots were 9.1 m long by 3.0 m wide with rows spaced 76 cm apart. The field was managed using conventional tillage practices. […] All treatments included a surfactant except glufosinate treatments, both alone and in combination. […] Results are summarized in Table 5 and are the means of the three replicates.
# velvetleaf (ABUTH) [2] = assay: Test 6 field trial, postemergence; type: in vivo, Abutilon theophrasti; conditions: 470 g a.i./ha
# Text: (§2) Corn seeds (hybrid ‘Pioneer 35Y62’) were planted in mid spring season, 3.8 cm deep in a silt loam soil having 4% organic matter and a pH of 5.8. Plots were 10.7 m long by 1.5 m wide with rows spaced 76 cm apart. Seeds were spaced 18 cm apart within the rows. The field was managed using conventional tillage practices. […] All treatments included a surfactant except glufosinate treatments, both alone and in combination. […] Results are summarized in Table 6 and are the means of the three replicates.
# corn (ZEAMD) [3] = assay: Test 5 field trial, postemergence; type: in vivo, Zea mays ssp. indentata; conditions: atrazine 1120, glufosinate 470 or glyphosate 1120 g a.i./ha alone
# Text: as §1
# field pennycress (THLAR) = assay: Test 5 field trial, postemergence; type: in vivo, Thlaspi arvense; conditions: atrazine 1120, glufosinate 470 or glyphosate 1120 g a.i./ha alone
# Text: as §1
# [4] = tested on: common lambsquarters (CHEAL); assay: Test 6 field trial, postemergence; type: in vivo, Chenopodium album; conditions: 470 g a.i./ha
# Text: as §2
# [5] = tested on: common lambsquarters (CHEAL); assay: Test 5 field trial, postemergence; type: in vivo, Chenopodium album; conditions: atrazine 1120, glufosinate 470 or glyphosate 1120 g a.i./ha alone
# Text: as §1
# corn (ZEAMD) [6] = assay: Test 6 field trial, postemergence; type: in vivo, Zea mays ssp. indentata; conditions: 470 g a.i./ha
# Text: as §2
# yellow foxtail (SETLU) [7] = assay: Test 6 field trial, postemergence; type: in vivo, Setaria glauca; conditions: 470 g a.i./ha
# Text: as §2
# [8] = tested on: Pennsylvania smartweed (POLPY); assay: Test 6 field trial, postemergence; type: in vivo, Polygonum pensylvanicum; conditions: 470 g a.i./ha
# Text: as §2
# redroot pigweed (AMARE) = assay: Test 6 field trial, postemergence; type: in vivo, Amaranthus retroflexus; conditions: 470 g a.i./ha
# Text: as §2
# yellow foxtail (SETLU) [9] = assay: Test 5 field trial, postemergence; type: in vivo, Setaria glauca; conditions: atrazine 1120, glufosinate 470 or glyphosate 1120 g a.i./ha alone
# Text: as §1
# shepherd's purse (CAPBP) = assay: Test 5 field trial, postemergence; type: in vivo, Capsella bursa-pastoris; conditions: atrazine 1120, glufosinate 470 or glyphosate 1120 g a.i./ha alone
# Text: as §1
# giant foxtail (SETFA) [10] = assay: Test 6 field trial, postemergence; type: in vivo, Setaria faberi; conditions: 470 g a.i./ha
# Text: as §2
# velvetleaf (ABUTH) [11] = assay: Test 5 field trial, postemergence; type: in vivo, Abutilon theophrasti; conditions: atrazine 1120, glufosinate 470 or glyphosate 1120 g a.i./ha alone
# Text: as §1
# large crabgrass (DIGSA) = assay: Test 5 field trial, postemergence; type: in vivo, Digitaria sanguinalis; conditions: atrazine 1120, glufosinate 470 or glyphosate 1120 g a.i./ha alone
# Text: as §1
# common ragweed (AMBEL) = assay: Test 5 field trial, postemergence; type: in vivo, Ambrosia artemisiifolia; conditions: atrazine 1120, glufosinate 470 or glyphosate 1120 g a.i./ha alone
# Text: as §1
# velvetleaf (ABUTH) [12] = assay: Test 15 greenhouse, postemergence; conditions: 12 DAA
# barley (HORVX) = assay: Test 30 growth chamber, postemergence; type: in vivo, Hordeum vulgare
# Protocol: (§3) A growth chamber test was conducted to evaluate the effects on the plant species wheat (TRZAW, Triticum aestivum L.) and barley (HORVX, Hordeum vulgare L.) with mixtures of Compound 1 and Compound 2 with glycerol. Wheat and barley seeds were planted in a sandy loam soil having 0.9% organic matter and a pH of 6.3. […] Wheat and barley plants were treated postemergence at the two leaf growth stage for Compound 1 and at the three leaf growth stage for Compound 2. Each treatment was replicated one time. […] Plants were watered as needed. […] Colby's Equation was used to determine herbicidal effects expected from the mixtures.
# wheat (TRZAW) = assay: Test 30 growth chamber, postemergence; type: in vivo, Triticum aestivum
# Protocol: as §3
# [13] = 17 DAA, Glycerol 7100 g a.i./ha
# [14] = 17 DAA, Glycerol 14200 g a.i./ha
# [15] = 18 DAA, Glycerol 7100 g a.i./ha
# [16] = 18 DAA, Glycerol 14200 g a.i./ha
structure (smiles),measurement,setting,value
CP(=O)(O)CCC(N)C(=O)O (stereo not shown) [Glufosinate],SETFA Obs,giant foxtail (SETFA) [1]; 16 DAA,100%
same,SETFA Obs,giant foxtail (SETFA) [1]; 31 DAA,99%
same,ABUTH Obs,velvetleaf (ABUTH) [2]; 14 DAA,0%
same,ABUTH Obs,velvetleaf (ABUTH) [2]; 28 DAA,0%
same,ZEAMD Obs,corn (ZEAMD) [3]; 16 DAA,0%
same,ZEAMD Obs,corn (ZEAMD) [3]; 31 DAA,0%
same,THLAR Obs,field pennycress (THLAR); 16 DAA,100%
same,THLAR Obs,field pennycress (THLAR); 31 DAA,100%
same,CHEAL Obs,[4]; 14 DAA,100%
same,CHEAL Obs,[4]; 28 DAA,100%
same,CHEAL Obs,[5]; 16 DAA,87%
same,CHEAL Obs,[5]; 31 DAA,79%
same,ZEAMD Obs,corn (ZEAMD) [6]; 14 DAA,0%
same,ZEAMD Obs,corn (ZEAMD) [6]; 28 DAA,0%
same,SETLU Obs,yellow foxtail (SETLU) [7]; 14 DAA,95%
same,SETLU Obs,yellow foxtail (SETLU) [7]; 28 DAA,63%
same,POLPY Obs,[8]; 14 DAA,98%
same,POLPY Obs,[8]; 28 DAA,98%
same,AMARE Obs,redroot pigweed (AMARE); 14 DAA,100%
same,AMARE Obs,redroot pigweed (AMARE); 28 DAA,100%
same,SETLU Obs,yellow foxtail (SETLU) [9]; 16 DAA,98%
same,SETLU Obs,yellow foxtail (SETLU) [9]; 31 DAA,90%
same,CAPBP Obs,shepherd's purse (CAPBP); 16 DAA,100%
same,CAPBP Obs,shepherd's purse (CAPBP); 31 DAA,100%
same,SETFA Obs,giant foxtail (SETFA) [10]; 14 DAA,99%
same,SETFA Obs,giant foxtail (SETFA) [10]; 28 DAA,99%
same,ABUTH Obs,velvetleaf (ABUTH) [11]; 16 DAA,33%
same,ABUTH Obs,velvetleaf (ABUTH) [11]; 31 DAA,27%
same,DIGSA Obs,large crabgrass (DIGSA); 16 DAA,99%
same,DIGSA Obs,large crabgrass (DIGSA); 31 DAA,94%
same,AMBEL Obs,common ragweed (AMBEL); 16 DAA,100%
same,AMBEL Obs,common ragweed (AMBEL); 31 DAA,100%
O=C1[C@H]2C[C@H](F)CN2C(=O)N1c1cc(NS(=O)(=O)CCl)c(Cl)cc1F [Profluazol],"Obs response, scale 0 to 100",velvetleaf (ABUTH) [12]; 2 g a.i./ha,91
same,"Obs response, scale 0 to 100",velvetleaf (ABUTH) [12]; 8 g a.i./ha,100
same,"Obs response, scale 0 to 100",velvetleaf (ABUTH) [12]; 15 g a.i./ha,100
CCOc1cc(Oc2ccc(C(F)(F)F)cc2Cl)ccc1[N+](=O)[O-] [Oxyfluorfen],"Obs response, scale 0 to 100",velvetleaf (ABUTH) [12]; 15 g a.i./ha,43
same,"Obs response, scale 0 to 100",velvetleaf (ABUTH) [12]; 30 g a.i./ha,67
same,"Obs response, scale 0 to 100",velvetleaf (ABUTH) [12]; 60 g a.i./ha,81
OCC(O)CO [Glycerol],HORVX Obs,barley (HORVX); [13],0%
same,HORVX Obs,barley (HORVX); [14],0%
same,HORVX Obs,barley (HORVX); [15],0%
same,HORVX Obs,barley (HORVX); [16],0%
same,TRZAW Obs,wheat (TRZAW); [13],0%
same,TRZAW Obs,wheat (TRZAW); [14],0%
same,TRZAW Obs,wheat (TRZAW); [15],0%
same,TRZAW Obs,wheat (TRZAW); [16],0%

# Source: patent US20100285959A1, “HERBICIDAL MIXTURES” (priority 2006, published 2010)
